The values that follow are results of earlier work, collected in patent publication US20020068365A1, “CONTROLLED RELEASE NITRIC OXIDE PRODUCING AGENTS” (priority 1998, published 2002).

The conditions of data set [1]: L-arginine free base.
The conditions of data set [2]: 30 grams of L-arginine as an infusion.

With `N=C(N)NCCC[C@H](N)C(=O)O` [L-arginine], the pH range in data set [1] is on record as 10.5-12.0. For the same molecule, the “rise of circulating levels of L-arginine compared to baseline levels” value in data set [2] was “up to 100 fold”.
